Results published in patent US8389552B2, “(S)-6-(2-(4-(cyclobutylsulfonyl)-1H-imidazol-1-yl)-3-cyclopentylpropanamido)nicotinic acid useful as a glucokinase activator” (Pfizer Inc., priority 2009, dated 2013).

Molecular target: T1, Full-length glucokinase (beta cell isoform) (Homo sapiens, UniProt P35557)
T1 construct: Full-length glucokinase (beta cell isoform) was His-tagged at N-terminus; His tag (N); made in house; host or cells: E. coli BL21(DE3), pBCGK vector
T1 sequence (P35557 1-465): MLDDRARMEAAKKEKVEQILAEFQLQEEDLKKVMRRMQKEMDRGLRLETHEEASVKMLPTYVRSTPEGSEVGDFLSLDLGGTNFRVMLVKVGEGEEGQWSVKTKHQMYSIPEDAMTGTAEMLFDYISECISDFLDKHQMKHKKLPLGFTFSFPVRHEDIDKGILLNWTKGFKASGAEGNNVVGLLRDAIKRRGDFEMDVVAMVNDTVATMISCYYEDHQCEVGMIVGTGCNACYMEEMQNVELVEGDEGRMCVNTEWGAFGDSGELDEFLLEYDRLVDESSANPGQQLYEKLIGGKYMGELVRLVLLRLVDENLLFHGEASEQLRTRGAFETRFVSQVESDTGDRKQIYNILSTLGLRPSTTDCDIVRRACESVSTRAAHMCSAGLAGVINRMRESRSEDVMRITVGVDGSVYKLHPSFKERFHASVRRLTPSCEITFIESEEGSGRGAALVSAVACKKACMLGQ
Experiment: Glucokinase activation assay (PK/LDH-coupled, NADH depletion at 340 nm)
Type: biochemical
Details: 5 mM glucose, single value or range where N>1; for EC50: 2.5 mM ATP, pH 7.1, room temperature, read-out: EC50; for Emax: % max activation = (Va/Vo−1)×100 from fit, pH 7.1, read-out: Maximum Activation (%)
Description: Full-length glucokinase (beta cell isoform) was His-tagged at N-terminus and purified by a Ni column followed by size exclusion chromatography. A 320 mL column was packed in house using Superdex75 (Amersham Pharmacia, Carlsbad, Calif.) preparation grade resin. Glucose was obtained from Calbiochem (San Diego, Calif.) and other reagents were purchased from Sigma-Aldrich (St. Louis, Mo.).
All assays were performed in a Corning 384-well plate using Spectramax PLUS spectrophotometer (Molecular Devices, Sunnyvale, Calif.) at room temperature. The final assay volume was 40 ∥L. The buffer conditions used in this assay were as follows: 50 mM HEPES, 5 mM glucose, 2.5 mM ATP, 3.5 mM MgCl2, 0.7 mM NADH, 2 mM dithiothreitol, 1 unit/mL pyruvate kinase/lactate dehydrogenase (PK/LDH), 0.2 mM phosphoenolpyruvate, and 25 mM KCl. The buffer pH was 7.1. The test compound in dimethylsulfoxide solution was added to the buffer and mixed by a plate shaker for 7.5 minutes. The final concentration of dimethylsulfoxide introduced into the assay was 0.25%.
Glucokinase was added to the buffer mixture to initiate the reaction in the presence and absence of compound. The reaction was monitored by absorbance at 340 nm due to the depletion of NADH. The initial reaction velocity was measured by the slope of a linear time course of 0-300 seconds. The percentage of maximum activation was calculated by the following equation: % Maximum Activation=(Va/Vo−1)×100; wherein each of Va and Vo is defined as the initial reaction velocity in the presence and absence of the tested compound, respectively.
The glucokinase activities were measured as a function of compound concentrations.

Structure (SMILES)	EC50	Emax
Cc1ccc(NC(=O)[C@H](CC2CCCC2)n2cnc(S(C)(=O)=O)c2)nc1 [Example 35, (S)-3-cyclopentyl-N-(5-methylpyridin-2-yl)-2-(4-(methylsulfonyl)-1H-imidazol-1-yl)propanamide]	0.8 µM	100%
CCS(=O)(=O)c1cnn([C@@H](CC2CCCC2)C(=O)Nc2cnc(C)cn2)c1 [Example 22, (S)-3-cyclopentyl-2-(4-(ethylsulfonyl)-1H-pyrazol-1-yl)-N-(5-methylpyrazin-2-yl)propanamide]	25 µM	144%
CC(C)S(=O)(=O)c1cnn([C@@H](CC2CCCC2)C(=O)Nc2ccn(Cc3ccccc3)n2)c1 [Example 19, (S)—N-(1-benzyl-1H-pyrazol-3-yl)-3-cyclopentyl-2-(4-(isopropylsulfonyl)-1H-pyrazol-1-yl)propanamide]	1.3 to 1.7 µM	33 to 39%
CCS(=O)(=O)c1cnn([C@@H](CC2CCCC2)C(=O)Nc2ccn(C)n2)c1 [Example 20, (S)-3-cyclopentyl-2-(4-(ethylsulfonyl)-1H-pyrazol-1-yl)-N-(1-methyl-1H-pyrazol-3-yl)propanamide]	7.2 µM	80%
CC(C)S(=O)(=O)c1cnn([C@@H](CC2CCCC2)C(=O)Nc2ccccn2)c1 [Example 16, (S)-3-cyclopentyl-2-(4-(isopropylsulfonyl)-1H-pyrazol-1-yl)-N-(pyridin-2-yl)propanamide]	1.9 µM	48%
Cc1ccc(NC(=O)[C@H](CC2CCCC2)n2cnc(S(C)(=O)=O)n2)nc1 [Example 25, (S)-3-cyclopentyl-N-(5-methylpyridin-2-yl)-2-(3-(methylsulfonyl)-1H-1,2,4-triazol-1-yl)propanamide]	3.9 µM	116%
CC(C)S(=O)(=O)c1cnn([C@@H](CC2CCCC2)C(=O)Nc2ccc(C(F)(F)F)cn2)c1 [Example 3, (S)-3-cyclopentyl-2-(4-(isopropylsulfonyl)-1H-pyrazol-1-yl)-N-(5-(trifluoromethyl)pyridin-2-yl)propanamide]	0.7 to 1.9 µM	15 to 23%
Cn1ccc(NC(=O)[C@H](CC2CCOCC2)n2cnc(C(F)(F)F)c2)n1 [Example 76, (S)—N-(1-methyl-1H-pyrazol-3-yl)-3-(tetrahydro-2H-pyran-4-yl)-2-(4-(trifluoromethyl)-1H-imidazol-1-yl)propanamide]	18 µM	138%
O=C(Nc1cnc([C@H](O)CO)cn1)[C@H](CC1CCCC1)n1cnc(C(F)(F)F)c1 [Example 50, (S)-3-cyclopentyl-N-(5-((S)-1,2-dihydroxyethyl)pyrazin-2-yl)-2-(4-(trifluoromethyl)-1H-imidazol-1-yl)propanamide]	2.6 to 4.2 µM	121 to 140%
Cc1ccc(NC(=O)[C@H](CC2CCCC2)n2cc(S(=O)(=O)C(C)C)cn2)nc1 [Example 1, (S)-3-cyclopentyl-2-(4-(isopropylsulfonyl)-1H-pyrazol-1-yl)-N-(5-methylpyridin-2-yl)propanamide]	0.3 to 0.6 µM	38 to 50%
Cc1cn([C@@H](CC2CCCC2)C(=O)Nc2ccc(C(=O)O)cn2)nc1C(F)(F)F [Example 95, (S)-6-(3-cyclopentyl-2-(4-methyl-3-(trifluoromethyl)-1H-pyrazol-1-yl)propanamido)nicotinic acid]	8 µM	128%
CS(=O)(=O)c1cnn([C@@H](CC2CCCC2)C(=O)Nc2ccncn2)c1 [Example 13, (S)-3-cyclopentyl-2-(4-(methylsulfonyl)-1H-pyrazol-1-yl)-N-(pyrimidin-4-yl)propanamide]	32 µM	100%
Cc1ccc(NC(=O)[C@H](CC2CCCC2)n2cnc(S(=O)(=O)C(C)C)c2)nc1 [Example 28, (S)-3-cyclopentyl-2-(4-(isopropylsulfonyl)-1H-imidazol-1-yl)-N-(5-methylpyridin-2-yl)propanamide]	> 100 µM	–
CC(C)S(=O)(=O)c1cnn([C@@H](CC2CCCC2)C(=O)Nc2ncccn2)c1 [Example 5, (S)-3-cyclopentyl-2-(4-(isopropylsulfonyl)-1H-pyrazol-1-yl)-N-(pyrimidin-2-yl)propanamide]	> 100 µM	–
Cn1ccc(NC(=O)[C@H](CC2CCCC2)n2cnc(S(C)(=O)=O)n2)n1 [Example 26, (S)-3-cyclopentyl-N-(1-methyl-1H-pyrazol-3-yl)-2-(3-(methylsulfonyl)-1H-1,2,4-triazol-1-yl)propanamide]	33 µM	89%
Cc1cnc(NC(=O)[C@H](CC2CCCC2)n2nnc(S(C)(=O)=O)n2)cn1 [Example 81, (S)-3-cyclopentyl-N-(5-methylpyrazin-2-yl)-2-(5-(methylsulfonyl)-2H-tetrazol-2-yl)propanamide]	> 50 µM	–
CCn1ccc(NC(=O)[C@H](CC2CCCC2)n2cc(S(C)(=O)=O)cn2)n1 [Example 11, (S)-3-cyclopentyl-N-(1-ethyl-1H-pyrazol-3-yl)-2-(4-(methylsulfonyl)-1H-pyrazol-1-yl)propanamide]	32 µM	110%
Cn1ccc(NC(=O)[C@H](CC2CCCC2)n2nnc(S(C)(=O)=O)n2)n1 [Example 79, (S)-3-cyclopentyl-N-(1-methyl-1H-pyrazol-3-yl)-2-(5-(methylsulfonyl)-2H-tetrazol-2-yl)propanamide]	40 µM	99%
Cn1ccc(NC(=O)[C@H](CC2CCCC2)n2cnc(S(C)(=O)=O)c2)n1 [Example 36, (S)-3-cyclopentyl-N-(1-methyl-1H-pyrazol-3-yl)-2-(4-(methylsulfonyl)-1H-imidazol-1-yl)propanamide]	23 µM	125%
Cc1cnc(NC(=O)[C@H](CC2CCCC2)n2cc(C(=O)N(C)C)cn2)cn1 [Example 73, (S)-1-(3-cyclopentyl-1-(5-methylpyrazin-2-ylamino)-1-oxopropan-2-yl)-N,N-dimethyl-1H-pyrazole-4-carboxamide]	> 100 µM	–
